Source: patent publication US20030031715A1, “Pharmaceutical applications of hydrotropic agents, polymers thereof, and hydrogels thereof” (priority 2000, published 2003)
Values after ≈ are worked out from the molar mass of the structure shown. Like-named read-outs stand apart in the source and are kept apart here.

Legend:
[1] = Paclitaxel aqueous solubility in the presence of hydrotropic agents, polymers and hydrogels (HPLC); settings: for hydrotropic effect for paclitaxel, in words: agent concentration as printed in parentheses in the text
Description: The mobile phase consists of acetonitrile-water (45:55 v/v) with a flow rate of 1.0 ml/min.
To the filtered solution is added ethylene glycol dimethacrylate, a crosslinker at a concentration of 6 mol % to the monomer.

[2] = physchem; settings: water
[3] = Water solubility (maximum solubility) of hydrotropic agents; settings: for solubility: water
[4] = log (CO/CW), octanol and water; cited from earlier work
[5] = at 37° C.; cited from earlier work
[6] = physchem
From the text: (§1) These compounds were also used to examine the solubility increase of other poorly soluble drugs. […] Their chemical structures are shown below: [drawing 48]

[7] = Progesterone aqueous solubility in hydrotropic solutions; format: physicochemical
From the text: as §1

PTX Solubility [1] [µg/mL] | Compound | Partition Coefficient [4] | Water Solubility (μM) [5] [µM] | Water Solubility (μg/ml) [5] [µg/mL] | also measured
0 | NC(=O)c1cccc(C(N)=O)n1 [2,6-pyridinedicarboxamide] |  |  |  | solubility [2]: 2.5 mM (≈ 413 µg/mL)
0 | CCN(CC)C(=O)c1cccnc1O [2-hydroxy-N,N-diethylnicotinamide] |  |  |  | solubility [2]: 200 mM (≈ 38800 µg/mL)
0 | NC(=O)c1ccncc1C(N)=O [3,4-pyridinedicarboxamide] |  |  |  | solubility [2]: 25 mM (≈ 4130 µg/mL)
 | Nc1ccc(C(=O)O)c(O)c1 [4-aminosalicylic acid] |  |  |  | solubility [2]: 5 mM (≈ 766 µg/mL)
 | CCN(CC)C(=O)c1ccc(=O)[nH]c1 [6-Hydroxy-N,N-diethylnicotinamide] |  |  |  | solubility [3]: 2000 mM (≈ 388000 µg/mL)
 | CN(C)CCCN1c2ccccc2Sc2ccc(Cl)cc21 [Chlorpromazine] | 3.17 | 94.1 | 30.0 | 
 | C(=C\c1ccccc1)/CN1CCN(C(c2ccccc2)c2ccccc2)CC1 [Cinnarizine] |  | <1.0 | <0.4 | 
 | C[C@@H]1C[C@H]2[C@@H]3CCC4=CC(=O)C=C[C@]4(C)[C@@]3(F)[C@@H](O)C[C@]2(C)[C@@]1(O)C(=O)CO [Dexamethasone] | 1.95 | 25.5 | 10.0 | 
 | O=C(O)Cc1ccccc1Nc1c(Cl)cccc1Cl [Diclofenac] | 1.12 | 10.1 | 3.0 | 
 | CC/C(=C(/CC)c1ccc(O)cc1)c1ccc(O)cc1 [Diethylstilbestrol] | 4.50 | 7.5 | 2.0 | 
 | C[C@H]1O[C@@H](O[C@H]2[C@@H](O)C[C@H](O[C@H]3[C@@H](O)C[C@H](O[C@H]4CC[C@@]5(C)[C@H](CC[C@@H]6[C@@H]5C[C@@H](O)[C@]5(C)[C@@H](C7=CC(=O)OC7)CC[C@]65O)C4)O[C@@H]3C)O[C@@H]2C)C[C@H](O)[C@@H]1O [Digoxin] | 1.26 | 38.4 | 30.0 | 
 | C[C@]12CC[C@@H]3c4ccc(O)cc4CC[C@H]3[C@@H]1CCC2=O [Estrone] | 3.69 |  |  | 
 | Fc1ccc(C(c2ccc(F)cc2)N2CCN(C/C=C/c3ccccc3)CC2)cc1 [Flunarizine] | 4.70 | 1.0 | 0.4 | 
 | COC1=CC(=O)C[C@@H](C)[C@]12Oc1c(Cl)c(OC)cc(OC)c1C2=O [Griseofulvin] | 2.07 | 19.8 |  | Griseofulvin aqueous solubility [6]: 7 µg/mL; solubility ([6]; 37 °C, water): 7 µg/mL (≈ 19.8 µM)
 | C[C@]12CCC(=O)C=C1CC[C@@H]1[C@@H]2[C@@H](O)C[C@@]2(C)[C@H]1CC[C@]2(O)C(=O)CO [Hydrocortisone] | 1.52 |  |  | 
 | COc1ccc2c(c1)c(CC(=O)O)c(C)n2C(=O)c1ccc(Cl)cc1 [Indomethacin] | 4.27 | 55.9 | 20.0 | 
 | CCC(C)n1ncn(-c2ccc(N3CCN(c4ccc(OCC5COC(Cn6cncn6)(c6ccc(Cl)cc6Cl)O5)cc4)CC3)cc2)c1=O (centres unmarked) [Itraconazole] | 5.66 | 2.8 | 2.0 | 
 | COC(=O)Nc1nc2ccc(C(=O)c3ccccc3)cc2[nH]1 [Mebendazole] | 2.83 |  |  | 
 | CCN(CC)C(=O)c1cccnc1 [N,N-diethylnicotinamide] |  |  |  | hydrotropic property relative to N,N-dimethylnicotinamide [1]: > 20 times
 | C=CC(=O)NC(C)C [N-isopropylacrylamide] |  |  |  | hydrotropic effect for paclitaxel, in words [1]: very small hydrotropic effects
 | CNC(C)=O [N-methylacetamide] |  |  |  | hydrotropic effect for paclitaxel, in words [1]: very small hydrotropic effects; PTX Solubility ([1]; hydrotropic agent […]): 12 µg/mL
 | COC(=O)C1=C(C)NC(C)=C(C(=O)OCCN(C)Cc2ccccc2)C1c1cccc([N+](=O)[O-])c1 (centres unmarked) [Nicardipine] | 3.62 | 7.1 | 3.4 | 
 | COC(=O)C1=C(C)NC(C)=C(C(=O)OC)C1c1ccccc1[N+](=O)[O-] [Nifedifine] | 2.20 | 28.9 | 10.0 | 
 | C#C[C@]1(O)CC[C@H]2[C@@H]3CCC4=CC(=O)CC[C@@H]4[C@H]3CC[C@@]21C [Norethindrone] | 3.15 |  |  | 
 | CCOc1ccc(NC(C)=O)cc1 [Phenacetin] | 1.55 |  |  | 
 | O=C1NC(=O)C(c2ccccc2)(c2ccccc2)N1 [Phenytoin] | 2.47 | 79.3 | 20.0 | 
 | O=c1[nH]c2ccccc2n1C1CCN(CCCC(c2ccc(F)cc2)c2ccc(F)cc2)CC1 [Pimozide] | 4.50 | 2.2 | 1.0 | 

PTX Solubility [1] [µg/mL] | Compound | Partition Coefficient [4] | Water Solubility (μM) [5] [µM] | Water Solubility (μg/ml) [5] [µg/mL] | also measured
 | CC(=O)[C@H]1CC[C@H]2[C@@H]3CCC4=CC(=O)CC[C@]4(C)[C@H]3CC[C@]12C [Progesterone] | 3.84 | 3.8 |  | Progesterone solubility in hydrotropic solutions ([7]; 0.0 M, 37° C., mean ±SD, n=3): 0.0012 ± 0.0000; solubility ([7]; 37 °C, 0 M, control in pure water, read-out: Progesterone aqueous solubility): 1.2 µg/mL (≈ 3.82 µM); solubility ([7]; water without hydrotropic agent, water, 0.0 M, 37° C., mean ±SD, n=3, read-out: Progesterone solubility in hydrotropic solutions): 1.2 µg/mL (≈ 3.82 µM)
 | CO[C@H]1C[C@@H]2CC[C@@H](C)[C@@](O)(O2)C(=O)C(=O)N2CCCC[C@H]2C(=O)O[C@H]([C@H](C)C[C@@H]2CC[C@@H](O)[C@H](OC)C2)CC(=O)[C@H](C)/C=C(\C)[C@@H](O)[C@@H](OC)C(=O)[C@H](C)C[C@H](C)/C=C/C=C/C=C/1C [Rapamycin] |  | 3.3 | 3.0 | 
 | COC(=O)[C@H]1[C@H]2C[C@@H]3c4[nH]c5cc(OC)ccc5c4CCN3C[C@H]2C[C@@H](OC(=O)c2cc(OC)c(OC)c(OC)c2)[C@@H]1OC [Reserpine] | 3.73 | 1.6 | 1.0 | 
 | Cc1ccc(S(=O)(=O)[O-])cc1.[Na+] [Sodium p-toluenesulfonate] |  |  |  | solubility [3]: 2500 mM
 | Cc1ccc(S(=O)(=O)[O-])c(C)c1.[Na+] [Sodium xylenesulfonate] |  |  |  | solubility [3]: 2500 mM
 | CC(=O)S[C@@H]1CC2=CC(=O)CC[C@]2(C)[C@H]2CC[C@@]3(C)[C@@H](CC[C@@]34CCC(=O)O4)[C@H]12 [Spironolactone] | 2.78 | 72.0 | 30.0 | 
 | CC(C)(C)c1ccc(C(O)CCCN2CCC(C(O)(c3ccccc3)c3ccccc3)CC2)cc1 (centres unmarked) [Terfenadine] | 4.05 | 152.8 | 72.1 | 
 | O=C1CCC(N2C(=O)c3ccccc3C2=O)C(=O)N1 (centres unmarked) [Thalidomide] | 0.64 | 77.5 | 20.0 | 
 | CCCCNC(=O)NS(=O)(=O)c1ccc(C)cc1 [Tolbutamide] |  | 202.6 | 54.8 | 
 | CN1CCN(CCCN2c3ccccc3Sc3ccc(C(F)(F)F)cc32)CC1 [Trifluoperazine] | 4.15 |  |  | 
 | Nc1ncnc2c1ncn2[C@@H]1O[C@H](CO)[C@@H](O)[C@H]1O [adenosine] |  |  |  | solubility [2]: 5 mM (≈ 1340 µg/mL)
 | CC(C)N(C(=O)c1cccnc1)C(C)C [diisopropylnicotinamide, N,N-diisopropylnicotinamide] |  |  |  | solubility [2]: 50 mM (≈ 10300 µg/mL)
 | CC(=O)OCC(COC(C)=O)OC(C)=O [glyceryl triacetate] |  |  |  | solubility [2]: 200 mM
 | O=C1NS(=O)(=O)c2ccccc21 [o-benzoic acid sulfimide] |  |  |  | maximum solubility (water solubility) of the hydrotropic agent ([3]; in water): 10 mM
1 | NC(N)=O [urea] |  |  |  | 
66 | Pluronic F127 |  |  |  | 
118 | Pluronic P85 |  |  |  | 
42 | Poly(2-methacryloyloxyethyl phosphorylcholine-co-N-isopropylacrylamide) |  |  |  | 
149 | Poly(6-allyloxy-N,N-diethylnicotinamide) |  |  |  | 
253 | Poly(N-allylnicotinamide) |  |  |  | 
28 | Poly(Sodium 4-acrylamidosalicylate) |  |  |  | 
0 | Poly(Sodium 5-acrylamidosalicylate) |  |  |  | 
3 | Poly(sodium 6-allyloxynicotinic acid) |  |  |  | 
3 | Polyvinylpyrrolidone K-25 |  |  |  | 
1 | Polyvinylpyrrolidone K-30 |  |  |  | 
2 | Polyvinylpyrrolidone K-90 |  |  |  | 
0 | Polyvinylpyrrolidone K- 17 |  |  |  | 

Compound | PTX Solubility [1] [µg/mL] | Partition Coefficient [4] | Water Solubility (μM) [5] [µM] | Water Solubility (μg/ml) [5] [µg/mL] | also measured
C=C(C)C(=O)OCCOP(=O)([O-])OCC[N+](C)(C)C [2-methacryloyloxyethyl phosphorylcholine] | 3199 |  |  |  | 
